Laboratory results: patent US20130131321A1, “LIGANDS FOR ANTIBODY AND Fc-FUSION PROTEIN PURIFICATION BY AFFINITY CHROMATOGRAPHY” (GRAFFINITY PHARMACEUTICALS GMBH, priority 2010, published 2013)

Tests used:
[1] = system: host cell proteins (HCP); experiment: Microtiter plate chromatography of resins, host cell proteins (bound); format: binding, CHO; settings: host cell proteins
[2] = system: Palivizumab; experiment: SPR screening of chemical microarrays, Palivizumab; format: binding, humanized; settings: chemical microarray, immobilized ligand
Text: Graffinity has developed high density chemical microarrays comprising thousands of small molecules immobilized onto gold chips. The arrays are constructed using maleimide-thiol coupling chemistry in combination with high density pintool spotting. For the construction, glass plates are microstructured by photolithographical methods in order to define up to 9,216 sensor fields per array. A subsequently applied gold coating provides the basis for the SPR effect and enables the formation of a binary, mixed self assembled monolayer (SAM) of two different thiols. […]
Surface plasmons are collective oscillations of electrons at a metal surface which can be resonantly excited by polarized light of appropriate wavelength and incidence angle. […] Processes which alter the local refractive index in close proximity to the metal surface (such as antibody binding to the immobilized ligands) can therefore be monitored sensitively. […] While scanning over a range of wavelengths covering the SPR resonance conditions, reflection images are recorded stepwise. […]
The experimental results of the microarray screening campaigns were analyzed by manual hit selection using in-house developed software routines as well as by an in-depth data analysis by commercially available data mining tools. […]

[3] = biological target: T1, Bevacizumab (Homo sapiens, UniProt P01857); experiment: Uptake kinetics by batch adsorption (time-scale of binding); design: species or system humanized; settings: 0.75 mg ml^−1 Bevacizumab in PBS, 25° C.
T1 construct: fused on or other part: humanised anti-VEGF-A VH domain N-terminal of the gamma-1 constant region (engineered, no UniProt entry)
Protocol: Uptake kinetics were investigated similarly by batch adsorption in 96-well filter plates. Again, 10 μl of sorbent slurry (50% v/v) were mixed with 100 μl of protein solution. However, a fixed initial concentration of 0.75 mg ml^−1 Bevacizumab in PBS was used. Reactions were agitated vigorously at 25° C. for up to 80 min. Supernatants were separated rapidly by spinning through filters after 2.5, 5, 10, 20, 40 and 80 minutes and sampled for analysis. Concentrations of the antibody were analyzed by Bradford assay.
Uptake kinetics were characterized by a time-scale of binding t0.8, which was defined as the time after which 80% of the equilibrium saturation of resin with antibody had occurred. For determination of t0.8, measured concentrations in the supernatant were interpolated by fitting of double-exponentials (5) and values of t0.8 were read out from graphs. Parameters of Langmuir isotherms and time-scales of binding for in-house resins as well as for reference resins are reported in the table below.

Structure (SMILES): COc1ccc(NC(=O)c2cc(-c3ccco3)n(C)n2)cc1C(=O)NCCCN [Ligand L1, 5-[5-(2-Furyl)-1-methylpyrazol-3-yl]carboxamido-2-methoxybenzoic acid N-(3-aminopropyl)amide]
- HCP Bound (%) [1]: 30%
- SPR binding to full length Palivizumab [2]: clearly bound
- t0.8 (time-scale of binding, 80% of equilibrium saturation) [3]: 9.9 min
